In PMC9287337 (Scientific Reports, 2022):

B1: BMP7: recombinant BMP family member (protein, UniProt P18075 293-431, looked up)
Bone morphogenetic protein 7: STGSKQRSQNRSKTPKNQEALRMANVAENSSSDQRQACKKHELYVSFRDLGWQDWIIAPEGYAAYYCEGECAFPLNSYMNATNHAIVQTLVHFINPETVPKPCCAPTQLNAISVLYFDDSSNVILKKYRNMVVRACGCH
B2: BMP6: recombinant BMP family member (protein, UniProt P22004 375-513, looked up)
Bone morphogenetic protein 6: SASSRRRQQSRNRSTQSQDVARVSSASDYNSSELKTACRKHELYVSFQDLGWQDWIIAPKGYAANYCDGECSFPLNAHMNATNHAIVQTLVHLMNPEYVPKPCCAPTKLNAISVLYFDDNSNVILKKYRNMVVRACGCH
B3: BMP4: BMP ligand used as comparator in the literature study (protein, UniProt P12644 293-408, looked up)
Bone morphogenetic protein 4: SPKHHSQRARKKNKNCRRHSLYVDFSDVGWNDWIVAPPGYQAFYCHGDCPFPLADHLNSTNHAIVQTLVNSVNSSIPKACCVPTELSAISMLYLDEYDKVVLKNYQEMVVEGCGCR

Legend:
C2C12 cells [1] = test: RealTime-Glo MT cell viability assay; format: cell-based, mouse; conditions: C2C12, 24 h, Supplemental Fig. S3
Procedure: To first determine how these novel compounds effect the health of C2C12 cells and to establish the range of subtoxic concentrations for future studies, cell viability assays were carried out. Serum-starved C2C12 cells were exposed to increasing concentrations (0.01–1000 µM) of SY-LB-35 and SY-LB-57 for 24 h. Exposure to Triton X-100 (125 µM) is toxic to cells and was used as a negative control for cell viability. Following the 24-h exposure period, the MT Cell viability substrate was added to the cultures. Only viable cells can reduce the substrate and, thereby, generate a luminescent signal. Any decrease in luminescence was considered an indication of cell death or toxicity.
C2C12 cells (100 µL) were seeded in a 96-well plate at 5 × 10^5 cells/mL and incubated overnight in complete growth media to achieve 80% confluency followed by serum-starvation for 16–18 h.
(§1) Next, reagents from the RealTime-Glo™ MT Cell Viability Assay Kit (Promega, Madison, WI, USA) were diluted in SS medium and used according to manufacturer’s protocol. Cellular luminescence was measured using the FilterMax F5 Multi-mode Microplate Reader (Molecular Devices, San Jose, CA, USA). Data from three independent experiments with individual experiments carried out in triplicate was determined and reported as a percentage of control.

p-Smad = tested on: p-Smad; set-up: method as in PMID 30602563; conditions: 30-min stimulation assays; cited from earlier work
C2C12 cells [2] = test: Cell viability assay in presence or absence of Dorsomorphin; format: cell-based, mouse; conditions: 10 µM inhibitor, 24 h
Procedure: To resolve whether the SY-LB-35 or SY-LB-57 compound requires type I BMP receptor activity for the induction of cell viability in C2C12 cells, cell viability assays were carried out in the presence or absence of 10 µM DM.
C2C12 cells (100 µL) were seeded in a 96-well plate at 5 × 10^5 cells/mL and incubated overnight in complete growth media to achieve 80% confluency followed by serum-starvation for 16–18 h. […] For BMP receptor inhibition, cell viability assays were carried out in presence or absence of Dorsomorphin (DM; 10 µM; Sigma Aldrich, St. Louis, MO, USA), a non-selective inhibitor of type I BMP receptor activity.
as §1

[3] = tested on: type I BMP receptor-dependent p-Smad; test: Western blot of p-Smad in presence or absence of Dorsomorphin; format: cell-based, mouse; conditions: 10 µM inhibitor, compounds 1 µM, 30 min
Procedure: Total whole cell lysates were prepared and used for Western blot analysis of Smad phosphorylation using anti-p-Smad antibodies.
C2C12 cells (3 mL) were seeded into 35 mm dishes at 7.5 × 10^4 cells/mL in complete growth medium, incubated to reach 80% confluence and serum-starved for 16–18 h. […] Thereafter, the cultures were washed with ice-cold 1X TBS for 2 min. Lysis Buffer (Cell Signaling Technology, Danvers, MA, USA) supplemented with 1 mM PMSF (phenylmethylsulphonyl fluoride) was added to the cultures and whole cell lysates were prepared.
Laemmli sample buffer (4X) was added to the whole cell lysates (20 µg) to a final concentration of 1X and heated at 100 °C for 5 min. The samples were immediately cooled on ice for 5 min and centrifuged at 9500 rpm for 2 min at RT. The samples and the Precision Plus Protein Standard (5 µL; Bio-Rad, Hercules, CA, USA) were loaded on 12% SDS polyacrylamide gels. Protein was separated using the Bio-Rad Mini Protean II Gel Electrophoresis System at 135 V. Meanwhile, 0.2 µm nitrocellulose membranes were pre-incubated in cold 1X Transfer Buffer (10 mM Tris/2.5 mM glycine/20% methanol) for at least 30 min. Next, the separated proteins were transferred at 100 V onto the pre-equilibrated nitrocellulose membranes for 1 h in Transfer Buffer, followed by blocking in 5% BSA/0.1% Tween 20/1X TBS for 30 min. The membranes were incubated overnight at 4 °C with the desired primary rabbit monoclonal antibody (p-Smad1/5(S463/465)/9(S465/467), Smad1 (D5907) XP®, p-Akt (Ser473) (D9E) XP®, or Akt (pan) (C67E7), p-SAPK/JNK (Thr183/Tyr185), SAPK/JNK, β-actin (Cell Signaling Technologies, Danvers, MA, USA)) or rabbit polyclonal antibody (phospho-PI3 Kinase p85 (Tyr458)/p55 (Tyr199) antibody (Cell Signaling Technologies, Danvers, MA, USA), p-p38 MAPK, p38 MAPK, p-ERK1, ERK1/2) (Abclonal, Woburn, MA, USA)) in Antibody Dilution Buffer (1% BSA/0.1% Tween 20/1X TBS) and then washed with 1X TBST (0.1% Tween 20/1X TBS) three times for 15 min. HRP-conjugated Goat Anti-Rabbit IgG secondary antibody (Santa Cruz Biotechnology, Inc., Dallas, TX, USA) in Antibody Dilution Buffer was added to the membranes for 1 h at RT followed by three 15-min washes with 1X TBST. Finally, the blots were developed using SuperSignal ™ West Femto HRP Substrate solutions (Thermo Scientific, Rockford, IL, USA) and analysed using the Omega Lum™ G Imaging System (San Francisco, CA, USA). Quantification of chemiluminescent signals was carried out using ImageJ (Image Processing and Analysis in Java 1.8.0_112).

Molecule | Effect on cell viability (C2C12 cells [1]) | Increase in p-Smad levels over control (p-Smad) | other results
BMP9: recombinant BMP family member | Increases in cell viability |  | 
Brc1ccc(CSc2nc3ccccc3o2)cc1 [sb4, reference compound] |  | twofold | 
c1cc(-c2cnn3cc(-c4ccc(OCCN5CCCCC5)cc4)cnc23)ccn1 [DM, Dorsomorphin, reference compound] |  |  | Effect of inhibitor on cell viability increases stimulated by SY-LB-35 and SY-LB-57 (C2C12 cells [2]): complete inhibition of the cell viability increases; Effect of inhibitor on p-Smad increase induced by SY-LB-35 and SY-LB-57 [3]: completely prevented the increase in p-Smad levels
B1 | Increases in cell viability |  | 
B2 | Increases in cell viability |  | 
B3 |  | 11 fold | 
